PMC3429506, “Screening for Novel LRRK2 Inhibitors Using a High-Throughput TR-FRET Cellular Assay for LRRK2 Ser935 Phosphorylation” (PLoS ONE, 2012)

Molecular target: LRRK2 G2019S (Homo sapiens, UniProt Q5S007, G2019S)
Assay: TR-FRET cellular assay for LRRK2 Ser935 phosphorylation, HEK293T cells, BacMam LRRK2-GFP G2019S
Set-up: This high-throughput assay utilizes cells expressing full-length human LRRK2 with a C-terminal GFP tag (LRRK2-GFP); host or cells: HEK293T cells transduced with BacMam
Details: +/- SD, three independent experiments, * = partial inhibition, read-out: IC50, TR-FRET cell-based assay for Ser935 phosphorylation of LRRK2
Protocol: U-2 OS cells are maintained in growth medium (McCoy’s 5A supplemented with 10% dialyzed FBS (dFBS), 10 mM HEPES, 0.1 mM NEAA, 1 mM Sodium Pyruvate, and 100 U/mL Penicillin/100 µg/mL Streptomycin). HEK293T cells are maintained in DMEM with 10% dFBS, 10 mM HEPES, 0.1 mM NEAA and 100 U/mL Penicillin/100 µg/mL Streptomycin. SH-SY5Y cells are maintained in DMEM/F-12 medium supplemented with 10% dFBS and 100 U/mL Penicillin/100 µg/mL Streptomycin. […] GIBCO® human neural stem cells (hNSCs) were propagated as an adherent culture in StemPro® NSC SFM according to the manufacturer’s recommended protocol (Life Technologies). For BacMam transduction of U-2 OS and HEK293T, cells were harvested, mixed with various amounts of BacMam LRRK2-GFP reagent (v/v) and plated onto 6-well plates. […] Cells were assayed in 384-well format (∼20,000 cells/well) 48 hours post-transduction as above.
Transduced cells in the 384-well assay plate were incubated with indicated inhibitors (5X, 5 µL/well) for 60 to 90 minutes. During this time, 6 X lysis buffer (Life Technologies) was supplemented with 30 nM Tb-labeled anti-LRRK2 pSer935 antibody and both protease and phosphatase inhibitor cocktails (Sigma). The complete 6 X lysis buffer was added to each well (5 µL/well) and the plates were incubated at room temperature in the dark for 2 hours. […] A sigmoidal dose-response equation with varying slope was used to fit the data and generate IC50 values. Z′-factor values were calculated as: Z′-factor = 1 - [(3 × stdevno virus +3 × stdevmaxvirus)/(avgmaxvirus – avgno-virus)]. The IC50 values reported in Table 1 are the averaged numbers from three independent experiments.

LRRK2 G2019S, sequence (Q5S007 whole entry G2019S): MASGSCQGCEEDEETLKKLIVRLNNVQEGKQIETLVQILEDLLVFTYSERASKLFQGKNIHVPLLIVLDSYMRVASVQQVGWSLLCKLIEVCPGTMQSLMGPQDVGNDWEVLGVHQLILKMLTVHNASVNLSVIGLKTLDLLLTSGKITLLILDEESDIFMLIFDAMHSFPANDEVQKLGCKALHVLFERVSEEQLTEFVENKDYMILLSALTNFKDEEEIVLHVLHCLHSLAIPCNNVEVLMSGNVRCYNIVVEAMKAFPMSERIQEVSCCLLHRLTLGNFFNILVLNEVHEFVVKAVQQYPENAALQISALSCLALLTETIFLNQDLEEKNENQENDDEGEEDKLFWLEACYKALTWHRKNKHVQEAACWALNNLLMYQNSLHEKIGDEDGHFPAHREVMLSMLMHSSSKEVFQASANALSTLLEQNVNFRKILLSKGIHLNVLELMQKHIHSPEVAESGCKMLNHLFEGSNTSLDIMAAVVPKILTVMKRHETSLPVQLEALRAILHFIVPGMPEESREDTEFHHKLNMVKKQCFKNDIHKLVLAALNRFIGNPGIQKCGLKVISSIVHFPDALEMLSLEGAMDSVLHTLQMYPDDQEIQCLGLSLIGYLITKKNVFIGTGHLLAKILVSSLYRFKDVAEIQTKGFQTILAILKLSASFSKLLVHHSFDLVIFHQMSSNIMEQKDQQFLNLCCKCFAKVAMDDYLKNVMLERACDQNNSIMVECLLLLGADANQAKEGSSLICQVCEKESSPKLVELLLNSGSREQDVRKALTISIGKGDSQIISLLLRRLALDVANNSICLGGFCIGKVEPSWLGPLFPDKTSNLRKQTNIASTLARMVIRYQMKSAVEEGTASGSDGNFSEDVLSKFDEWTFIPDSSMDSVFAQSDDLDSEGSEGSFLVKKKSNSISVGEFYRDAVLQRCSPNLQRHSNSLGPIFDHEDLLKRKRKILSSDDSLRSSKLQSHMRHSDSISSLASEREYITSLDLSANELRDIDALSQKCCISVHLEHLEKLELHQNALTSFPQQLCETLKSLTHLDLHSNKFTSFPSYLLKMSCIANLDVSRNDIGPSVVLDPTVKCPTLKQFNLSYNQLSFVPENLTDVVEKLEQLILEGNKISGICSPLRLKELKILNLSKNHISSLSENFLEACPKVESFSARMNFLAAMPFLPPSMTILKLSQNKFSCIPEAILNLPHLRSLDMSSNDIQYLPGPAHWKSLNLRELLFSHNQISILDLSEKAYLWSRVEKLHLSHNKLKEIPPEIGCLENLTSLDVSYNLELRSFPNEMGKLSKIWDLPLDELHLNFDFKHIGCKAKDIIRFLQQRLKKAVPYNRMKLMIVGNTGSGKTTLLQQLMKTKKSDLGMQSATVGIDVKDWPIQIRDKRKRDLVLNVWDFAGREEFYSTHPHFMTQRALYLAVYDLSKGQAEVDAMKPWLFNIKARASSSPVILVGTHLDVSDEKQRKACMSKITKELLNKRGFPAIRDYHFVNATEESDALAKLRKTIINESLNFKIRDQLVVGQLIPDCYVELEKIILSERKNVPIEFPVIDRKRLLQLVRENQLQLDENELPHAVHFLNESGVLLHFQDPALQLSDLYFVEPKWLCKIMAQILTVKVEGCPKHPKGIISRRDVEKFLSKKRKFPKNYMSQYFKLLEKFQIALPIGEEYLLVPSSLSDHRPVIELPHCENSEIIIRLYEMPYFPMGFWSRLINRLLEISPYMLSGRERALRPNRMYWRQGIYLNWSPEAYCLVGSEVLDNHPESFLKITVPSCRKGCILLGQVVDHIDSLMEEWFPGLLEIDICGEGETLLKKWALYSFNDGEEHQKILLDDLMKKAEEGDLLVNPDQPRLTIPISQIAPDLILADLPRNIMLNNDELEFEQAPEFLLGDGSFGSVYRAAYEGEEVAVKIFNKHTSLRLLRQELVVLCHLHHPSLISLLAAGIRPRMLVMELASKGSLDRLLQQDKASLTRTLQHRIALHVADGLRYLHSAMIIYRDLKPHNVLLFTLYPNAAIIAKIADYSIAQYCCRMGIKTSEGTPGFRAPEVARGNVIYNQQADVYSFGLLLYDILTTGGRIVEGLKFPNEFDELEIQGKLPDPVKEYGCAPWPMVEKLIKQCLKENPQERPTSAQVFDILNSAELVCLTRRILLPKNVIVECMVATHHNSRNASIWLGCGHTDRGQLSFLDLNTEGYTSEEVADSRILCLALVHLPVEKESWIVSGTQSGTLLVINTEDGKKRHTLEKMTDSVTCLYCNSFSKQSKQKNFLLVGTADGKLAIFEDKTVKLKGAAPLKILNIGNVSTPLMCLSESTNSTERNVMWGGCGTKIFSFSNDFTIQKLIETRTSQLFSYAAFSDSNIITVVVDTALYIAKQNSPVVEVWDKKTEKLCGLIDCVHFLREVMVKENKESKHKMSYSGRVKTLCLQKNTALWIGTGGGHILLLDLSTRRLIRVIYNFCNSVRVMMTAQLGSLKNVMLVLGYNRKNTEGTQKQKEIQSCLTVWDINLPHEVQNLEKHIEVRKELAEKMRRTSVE

`COc1cc(C(=O)N2CCC(N3CCN(C)CC3)CC2)ccc1Nc1ncc2c(n1)N(C)c1ccccc1C(=O)N2C` [LRRK2-IN-1] was tested, and the IC50 was 60 nM.
